Laboratory results as given in patent US20250319032A1, “PHARMACEUTICAL COMPOSITIONS OF RIBOCICLIB” (Novartis AG, priority 2024, published 2025).

Assays:
[1] = test system: lacZ transgene within the bone marrow, liver, kidney, and duodenum from treated Muta™ Mice; assay: Transgenic gene mutation assay in Muta™ Mice (lacZ); type: in vivo, Muta™ Mouse CD2-lacZ80/HazfBR; conditions: oral gavage, 28 consecutive days, sampling day 31
Description: A study is on-going, with the objective of evaluating the potential of DMP433 to induce gene mutations in the lacZ transgene within the bone marrow, liver, kidney, and duodenum from treated Muta™ Mice. The bone marrow and liver will be examined as these tissues are expected to be highly exposed to DMP433 upon oral gavage dosing and/or representative of organs with fast and slow dividing cells respectively. The duodenum will be assessed as a site of contact tissue following oral gavage dosing. The kidney will also be examined as a standard target organ for tumours for nitrosamines.
The animals used will be transgenic mouse of the strain Muta™ Mouse CD2-lacZ80/HazfBR (supplied by Charles River, UK). The animals will have an age range of approximately 8 to 12 weeks on the first day of dosing, and a weight range of approximately 18 to 35 g. […]
Based on the toxicity and bioanalytical data generated under Labcorp Study Number 8526660, the maximum tolerated dose level (MTD) of 100 mg/kg/day* will be used as the high dose level. […] As there is a crossover in exposure between males and females, vehicle controls and the MTD of 100 mg/kg/day only will be evaluated in females. • group 4 male animals given 80 mg/kg/day from Day 4 of dosing onwards due to mortality/morbidity. […]

[2] = Range-finding oral toxicity study of DMP433 (Labcorp Study Number 8526660); type: in vivo, mouse; conditions: both sexes, Muta™ Mouse, mouse, in vivo; oral, daily; read-out: maximum tolerated dose level (MTD)
Method: (§1) In a previously conducted range-finding study (Labcorp Study Number 8526660) DMP433 was dosed orally in groups of 6 males and 6 females at 500, 100 or 50 mg/kg/day daily for up to 14 days. […] Where clinical signs were seen, animals had recovered prior to dosing the following day. A single Day 1 (Subgroup 1) female satellite animal was removed from the study due to the severity of the clinical observations. […] Where clinical signs were seen, animals had recovered prior to dosing the following day. […] Therefore, dosing in males and females will be conducted.
(§2) Based on the toxicity and bioanalytical data generated under Labcorp Study Number 8526660, the maximum tolerated dose level (MTD) of 100 mg/kg/day* will be used as the high dose level. Two further doses of 50 and 25 mg/kg/day, will also be tested in males (OECD, 2022). As there is a crossover in exposure between males and females, vehicle controls and the MTD of 100 mg/kg/day only will be evaluated in females. • group 4 male animals given 80 mg/kg/day from Day 4 of dosing onwards due to mortality/morbidity.

[3] = test system: Muta™ Mice; assay: as above; type: in vivo, mouse
Method: as §1, §2

[4] = Stability of DMP433 dose formulations in vehicle; type: physicochemical; conditions: 0.5 and 50 mg/mL; 2 to 8° C. and 15 to 25° C., protected from light
Method: The vehicle control is 2.2 eq HCl 1.ON (˜40%)+28% as powder sulfobutylether-β-cyclodextrin (pH 2.0+0.5), with storage conditions in dispensary of 2 to 8° C. protected from light.
The test item formulation will be prepared daily, unless stability data supports less frequent preparation. The stability data will be generated under Labcorp Study Number 8528626. DMP433 formulations in vehicle at concentrations of 0.5 and 50 mg/mL have been confirmed as stable for up to 8 days at 2 to 8° C. and 15 to 25° C., both protected from light. The storage conditions in central dispensary will be 15 to 25° C. protected from light.
The formulation will be analysed (HPLC/UV analysis, Lapcorp method 8528626-01F, version in force on 22nd February 2024) to confirm that it achieves concentration and homogeneity. Samples (as shown in the following tables, where n/a means not applicable) will be taken from the main experiment during week 1 and week 4 and analysed accordingly.

[5] = Bioanalysis and toxicokinetic evaluation of DMP433 in mouse plasma and tissues; type: in vivo; conditions: 100 mg/kg/day, Day 14
Method: as §1
The blood samples will be processed. Determination of DMP433 in mouse plasma containing K2EDTA as an anticoagulant will be conducted by Labcorp Bioanalytical in accordance with Labcorp Policies, and all procedures will be conducted following method DMP4MPP validated under Labcorp study number 8527178.
Toxicokinetic parameters will be estimated using Phoenix® WinNonlin® version 8.1 or higher (Certara USA, Inc., Princeton, New Jersey). A non-compartmental approach consistent with the oral route of administration will be used for parameter estimation. […]
For determination of mean DMP433 concentrations, concentration values that are below the limit of quantitation will be treated as zero. […]
Bioanalytical data will be used as received for the toxicokinetic analysis. Toxicokinetic parameters will be calculated. […]

For `CN(C)C(=O)c1cc2cnc(Nc3ccc(N4CCN(N=O)CC4)cn3)nc2n1C1CCCC1` [DMP433, 7-cyclopentyl-N,N-dimethyl-2-((5-(4-nitrosopiperazin-1-yl)pyridin-2-yl)amino)-7H-pyrrolo[2,3-d]pyrimidine-6-carboxamide], which “result of the gene mutation assay (capable of inducing mutation)” value [1] is on record?
Its value is “positive”.

And the MTD [2]?
The MTD was 100 mg/kg/day.

What about the “bodyweight, Range-Finder 3” value ([3]; 50 mg/kg/day oral, 14 days) of the same molecule?
The value was “all animals except one (male M5209) had gained bodyweight”.

What about the “clinical signs, Range-Finder 3” value ([3]; 50 mg/kg/day oral, up to 14 days, Subgroup 2 animals) of the same molecule?
The value was “squinting, mild decreased activity and piloerection”.

And the “bodyweight, Range-Finder 2” value ([3]; 100 mg/kg/day oral, 14 days)?
The value was “all animals gained bodyweight during the 14-day dosing period”.

And the “clinical signs, Range-Finder 2” value ([3]; 100 mg/kg/day oral, up to 14 days, Subgroup 2 animals)?
Its value is “squinting, partially closed eyes, fast respiration, mild hunched posture and piloerection”.

What about the “outcome of Range-Finder 1” value ([3]; 500 mg/kg/day oral, 6 males and 6 females) of the same molecule?
The value was “terminated on day 1 due to animal mortality/morbidity and convulsions”.

And the “time for which DMP433 formulations in vehicle are stable” value [4]?
The value was “up to 8 days”.

What about the “sex difference in bioanalytical data” value [5] of the same molecule?
The value was “approximately 2 fold”.
